# Assay results as given in PubChem BioAssay (NCI).
#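 Tested at 5 concentrations; 48 h exposure; 96-well plates; endpoints linearly interpolated, else capped at highest concentration. TGI marks complete inhibition of growth.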
# Key:
# Test in all cases: NCI-60 cell line screen, 48 h
# SK-MEL-5 melanoma = tested on: SK-MEL-5 melanoma
# IGROV1 ovarian = tested on: IGROV1 ovarian
# RPMI-8226 leukemia = tested on: RPMI-8226 leukemia
# HT29 colon = tested on: HT29 colon
# OVCAR-3 ovarian = tested on: OVCAR-3 ovarian
# CAKI-1 renal = tested on: CAKI-1 renal
# UACC-257 melanoma = tested on: UACC-257 melanoma
# EKVX NSCLC = tested on: EKVX NSCLC
# M14 melanoma = tested on: M14 melanoma
# NCI-H23 lung = tested on: NCI-H23 lung
# TK-10 renal = tested on: TK-10 renal
# UO-31 renal = tested on: UO-31 renal
# SNB-75 CNS = tested on: SNB-75 CNS
# MCF7 breast = tested on: MCF7 breast
# HL-60(TB) leukemia = tested on: HL-60(TB) leukemia
# A549 NSCLC = tested on: A549 NSCLC
# SNB-19 CNS = tested on: SNB-19 CNS
# NCI-H460 lung = tested on: NCI-H460 lung
# ACHN renal = tested on: ACHN renal
# SF-268 CNS = tested on: SF-268 CNS
# U251 CNS = tested on: U251 CNS
# SN12C renal = tested on: SN12C renal
# SK-OV-3 ovarian = tested on: SK-OV-3 ovarian
# HCC-2998 colon = tested on: HCC-2998 colon
# BT-549 breast = tested on: BT-549 breast
# CCRF-CEM leukemia = tested on: CCRF-CEM leukemia
# SW-620 colon = tested on: SW-620 colon
# COLO 205 colon = tested on: COLO 205 colon
# HOP-62 NSCLC = tested on: HOP-62 NSCLC
# NCI-H226 lung = tested on: NCI-H226 lung
# K-562 leukemia = tested on: K-562 leukemia
# MDA-N = tested on: MDA-N
# HCT-15 colon = tested on: HCT-15 colon
# KM12 colon = tested on: KM12 colon
# SK-MEL-2 melanoma = tested on: SK-MEL-2 melanoma
# UACC-62 melanoma = tested on: UACC-62 melanoma
# A498 renal = tested on: A498 renal
# HCT-116 colon = tested on: HCT-116 colon
# RXF 393 renal = tested on: RXF 393 renal
# SF-295 CNS = tested on: SF-295 CNS
# OVCAR-4 ovarian = tested on: OVCAR-4 ovarian
# DU-145 prostate = tested on: DU-145 prostate
# PC-3 prostate = tested on: PC-3 prostate
# T-47D breast = tested on: T-47D breast
# MDA-MB-231 breast = tested on: MDA-MB-231 breast
# MDA-MB-435 = tested on: MDA-MB-435
# MOLT-4 leukemia = tested on: MOLT-4 leukemia
# 786-0 renal = tested on: 786-0 renal
# HOP-92 NSCLC = tested on: HOP-92 NSCLC
# SK-MEL-28 melanoma = tested on: SK-MEL-28 melanoma
# LOX IMVI melanoma = tested on: LOX IMVI melanoma
# NCI/ADR-RES ovarian = tested on: NCI/ADR-RES ovarian
# OVCAR-8 ovarian = tested on: OVCAR-8 ovarian
# HS 578T breast = tested on: HS 578T breast
# MALME-3M melanoma = tested on: MALME-3M melanoma
# OVCAR-5 ovarian = tested on: OVCAR-5 ovarian
# SF-539 CNS = tested on: SF-539 CNS
compound,measurement,setting,value
CCCCCCSC[C@H](OC(C)=O)[C@@H](OC(C)=O)[C@@H](OC(C)=O)[C@@H](COC(C)=O)OC(C)=O,TGI,SK-MEL-5 melanoma,62.1 µM
same,TGI,IGROV1 ovarian,> 100 µM
same,TGI,RPMI-8226 leukemia,50.1 µM
same,TGI,HT29 colon,> 100 µM
same,TGI,OVCAR-3 ovarian,> 100 µM
same,TGI,CAKI-1 renal,> 100 µM
same,TGI,UACC-257 melanoma,> 100 µM
same,TGI,EKVX NSCLC,> 100 µM
same,TGI,M14 melanoma,> 100 µM
same,TGI,NCI-H23 lung,> 100 µM
same,TGI,TK-10 renal,> 100 µM
same,TGI,UO-31 renal,> 100 µM
same,TGI,SNB-75 CNS,> 100 µM
same,TGI,MCF7 breast,> 100 µM
same,TGI,HL-60(TB) leukemia,> 100 µM
same,TGI,A549 NSCLC,> 100 µM
same,TGI,SNB-19 CNS,> 100 µM
same,TGI,NCI-H460 lung,> 100 µM
same,TGI,ACHN renal,> 100 µM
same,TGI,SF-268 CNS,> 100 µM
same,TGI,U251 CNS,> 100 µM
same,TGI,SN12C renal,> 100 µM
same,TGI,SK-OV-3 ovarian,> 100 µM
same,TGI,HCC-2998 colon,> 100 µM
same,TGI,BT-549 breast,> 100 µM
same,TGI,CCRF-CEM leukemia,> 100 µM
same,TGI,SW-620 colon,> 100 µM
same,TGI,COLO 205 colon,> 100 µM
same,TGI,HOP-62 NSCLC,> 100 µM
same,TGI,NCI-H226 lung,> 100 µM
same,TGI,K-562 leukemia,> 100 µM
same,TGI,MDA-N,> 100 µM
same,TGI,HCT-15 colon,> 100 µM
same,TGI,KM12 colon,> 100 µM
same,TGI,SK-MEL-2 melanoma,> 100 µM
same,TGI,UACC-62 melanoma,> 100 µM
same,TGI,A498 renal,> 100 µM
same,TGI,HCT-116 colon,> 100 µM
same,TGI,RXF 393 renal,> 100 µM
same,TGI,SF-295 CNS,> 100 µM
same,TGI,OVCAR-4 ovarian,> 100 µM
same,TGI,DU-145 prostate,> 100 µM
same,TGI,PC-3 prostate,99.6 µM
same,TGI,T-47D breast,> 100 µM
same,TGI,MDA-MB-231 breast,> 100 µM
same,TGI,MDA-MB-435,> 100 µM
same,TGI,MOLT-4 leukemia,90.5 µM
same,TGI,786-0 renal,> 100 µM
same,TGI,HOP-92 NSCLC,> 100 µM
same,TGI,SK-MEL-28 melanoma,> 100 µM
same,TGI,LOX IMVI melanoma,> 100 µM
same,TGI,NCI/ADR-RES ovarian,> 100 µM
same,TGI,OVCAR-8 ovarian,> 100 µM
same,TGI,HS 578T breast,> 100 µM
same,TGI,MALME-3M melanoma,> 100 µM
same,TGI,OVCAR-5 ovarian,> 100 µM
same,TGI,SF-539 CNS,> 100 µM
O=C1/C(=C/c2ccc(O)c(CN3CCCCC3)c2)CCC/C1=C\c1ccc(O)c(CN2CCCCC2)c1,TGI,SK-MEL-5 melanoma,27.1 µM
same,TGI,IGROV1 ovarian,29.4 µM
same,TGI,RPMI-8226 leukemia,35.8 µM
same,TGI,HT29 colon,3.7 µM
same,TGI,OVCAR-3 ovarian,> 100 µM
same,TGI,CAKI-1 renal,34.5 µM
same,TGI,UACC-257 melanoma,23.9 µM
same,TGI,EKVX NSCLC,25.2 µM
same,TGI,M14 melanoma,44.5 µM
same,TGI,NCI-H23 lung,20.2 µM
same,TGI,TK-10 renal,21.1 µM
same,TGI,UO-31 renal,22.5 µM
same,TGI,SNB-75 CNS,12.4 µM
same,TGI,MCF7 breast,15.5 µM
same,TGI,HL-60(TB) leukemia,11.5 µM
same,TGI,A549 NSCLC,53.5 µM
same,TGI,SNB-19 CNS,17.7 µM
same,TGI,NCI-H460 lung,13.6 µM
same,TGI,ACHN renal,19.5 µM
same,TGI,SF-268 CNS,20.8 µM
same,TGI,U251 CNS,20.5 µM
same,TGI,SN12C renal,59 µM
same,TGI,SK-OV-3 ovarian,22.4 µM
same,TGI,HCC-2998 colon,20.6 µM
same,TGI,BT-549 breast,31.3 µM
same,TGI,CCRF-CEM leukemia,17.7 µM
same,TGI,SW-620 colon,29.1 µM
same,TGI,COLO 205 colon,10.4 µM
same,TGI,HOP-62 NSCLC,26.3 µM
same,TGI,NCI-H226 lung,48.2 µM
same,TGI,K-562 leukemia,42.3 µM
same,TGI,MDA-N,20.6 µM
same,TGI,HCT-15 colon,29.5 µM
same,TGI,KM12 colon,14.8 µM
same,TGI,SK-MEL-2 melanoma,50.6 µM
same,TGI,UACC-62 melanoma,38.2 µM
same,TGI,A498 renal,28.9 µM
same,TGI,HCT-116 colon,14.7 µM
same,TGI,RXF 393 renal,15.5 µM
same,TGI,SF-295 CNS,16.3 µM
same,TGI,OVCAR-4 ovarian,33.2 µM
same,TGI,DU-145 prostate,17.6 µM
same,TGI,PC-3 prostate,44.6 µM
same,TGI,T-47D breast,35.8 µM
same,TGI,MDA-MB-231 breast,17.4 µM
same,TGI,MDA-MB-435,18.2 µM
same,TGI,MOLT-4 leukemia,27 µM
same,TGI,786-0 renal,17.5 µM
same,TGI,HOP-92 NSCLC,12.3 µM
same,TGI,SK-MEL-28 melanoma,31.3 µM
same,TGI,LOX IMVI melanoma,25.1 µM
same,TGI,NCI/ADR-RES ovarian,9.82 µM
same,TGI,OVCAR-8 ovarian,29.8 µM
same,TGI,HS 578T breast,83.8 µM
same,TGI,MALME-3M melanoma,28.7 µM
same,TGI,OVCAR-5 ovarian,> 100 µM
